Patent US4835153A, “Malonic acid derivatives” (Nihon Nohyaku Co., Ltd., priority 1986, dated 1989)

What was measured:
[1] = system: hepatic disorder caused by carbon tetrachloride (liver injury, plasma glutamic pyruvic transaminase); assay: Effect of suppressing hepatic disorder caused by carbon tetrachloride; assay type: in vivo, mice (dd-strain, male); design: key to Liver injury index: liver injury index 0 = healthy, 2 slight, 4 evident, 6 serious injury; details: 30 mg/kg oral, 6 h before CCl4 0.05 ml/kg oral, 24 h after CCl4, mean of five mice; for Liver injury index: 0 healthy, 2 slightly affected, 4 evident injury, 6 serious injury; for p-GPT (plasma glutamic pyruvic transaminase activity): Reitman-Frankel, Karmen Units, >=2,100 calculated as 2,100
Experimental: Test Example 1 Effect of suppressing hepatic disorder caused by carbon tetrachloride. Test Method […] Six hours thereafter, carbon tetrachloride was orally administered in a proportion of 0.05 ml/kg. The animals were sacrificed 24 hours after the administration of carbon tetrachloride, and the extent of liver injury was grossly examined. On the other hand, blood was collected from the animal at the time of the sacrifice, and centrifuged to obtain plasma. The plasma glutamic pyruvic transminase (GPT) activity was determined according to the method of Reitman-Frankel. The activity was expressed in terms of Karmen Units (K.U.). The conditions of the liver were expressed in terms of liver injury index as follows. […] When the GPT activity was 2,100 units or higher, […], and the activity was calculated as 2,100 units for reasons of convenience.

[2] = acute oral toxicity to male rat (LD50); details: in vivo
Experimental: For example, LD50 value (acute oral toxicity to male rat) of the compound No. 20 is more than 1,000 mg/kg.

| SMILES | Liver injury index [1] | p-GPT (plasma glutamic pyruvic transaminase activity) [1] | LD50 [2] |
| --- | --- | --- | --- |
| CCOC(=O)C(C(=O)OCC)=C1SC2NCCNC2S1 (stereo not drawn) [Compound 1] | 2.0 | 225 K.U. |  |
| CC(C)OC(=O)C(C(=O)OC(C)C)=C1SC2NCCNC2S1 (stereo not drawn) [Compound 2, Diisopropyl(2,5-diaza-7,9-dithiabicyclo-[4,3,0]-nonane-8-ylidene)malonate] | 0.3 | 24.4 K.U. |  |
| CCCOC(=O)C(C(=O)OCCC)=C1SC2NCCNC2S1 (stereo not drawn) [Compound 3] | 0.1 | 53.0 K.U. |  |
| CCCOC(=O)C(C(=O)OCCC)=C1SC2C(S1)N(C(C)=O)CCN2CC (stereo not drawn) [Compound 10] | 4.5 | 2,000 K.U. |  |
| CC(C)OC(=O)C(C(=O)OC(C)C)=C1SC2C(S1)N(C)CCN2C (stereo not drawn) [Compound 16, Diisopropyl(2,5-dimethyl-2,5-diaza-7,9-dithiabicyclo-[4,3,0]-nonane-8-ylidene)malonate] | 0.6 | 32 K.U. |  |
| COC(=O)C(C(=O)OC)=C1SC2C(S1)N(C)CCN2C (stereo not drawn) [Compound 18] | 1.8 | 166 K.U. |  |
| CCOC(=O)C(C(=O)OCC)=C1SC2C(S1)N(C)CCN2C (stereo not drawn) [Compound 19] | 1.6 | 99 K.U. |  |
| CCCOC(=O)C(C(=O)OCCC)=C1SC2C(S1)N(C)CCN2C (stereo not drawn) [Compound 20] |  |  | > 1000 mg/kg |
| CCCCOC(=O)C(C(=O)OCCCC)=C1SC2C(S1)N(C)CCN2C (stereo not drawn) [Compound 23] | 1.2 | 10.2 K.U. |  |
| CCN1CCN(CC)C2SC(=C(C(=O)OC)C(=O)OC)SC21 (stereo not drawn) [Compound 25] | 0.4 | 13.2 K.U. |  |
| CC(C)OC(=O)C(C(=O)OC(C)C)=C1SC2N(C)CCN(C)C2(C)S1 (stereo not drawn) [Compound 28] | 1.5 | 547 K.U. |  |
| CCCCOC(=O)C(C(=O)OCCCC)=C1SC2C(S1)N(CC)CCN2CC (stereo not drawn) [Compound 30] | 0.8 | 22.8 K.U. |  |
| CCN1CCN(CC)C2(C)SC(=C(C(=O)OC(C)C)C(=O)OC(C)C)SC12 (stereo not drawn) [Compound 33] | 1.2 | 925 K.U. |  |
| CCCOC(=O)C(C(=O)OCCC)=C1SC2C(S1)N(CC)CCN2CC (stereo not drawn) [Compound 37] | 1.4 | 143 K.U. |  |
| CCN1CCN(CC)C2SC(=C(C(=O)OC(C)(C)C)C(=O)OC(C)(C)C)SC21 (stereo not drawn) [Compound 40] | 1.8 | 164 K.U. |  |
| C=CCN1CCN(CC=C)C2SC(=C(C(=O)OCCC)C(=O)OCCC)SC21 (stereo not drawn) [Compound 43] | 0.2 | 51 K.U. |  |
| C=CCOC(=O)C(C(=O)OCC=C)=C1SC2C(S1)N(CC=C)CCN2CC=C (stereo not drawn) [Compound 49] | 1.2 | 23.8 K.U. |  |
| COCC(C)OC(=O)C(C(=O)OC(C)COC)=C1SC2C(S1)N(C)CCN2C (stereo not drawn) [Compound 51] | 0.4 | 18.2 K.U. |  |

| SMILES | Liver injury index [1] | p-GPT (plasma glutamic pyruvic transaminase activity) [1] | LD50 [2] |
| --- | --- | --- | --- |
| CCOC(=O)C(C(=O)OC)=C1SC2C(S1)N(C)CCN2C (stereo not drawn) [Compound 54] | 0 | 13.4 K.U. |  |
| CCOC(=O)C(C(=O)OC(C)C)=C1SC2C(S1)N(C)CCN2C (stereo not drawn) [Compound 56] | 0 | 16.8 K.U. |  |
| CCCCOC(=O)C(C(=O)OCC)=C1SC2C(S1)N(C)CCN2C (stereo not drawn) [Compound 59] | 0.5 | 109.2 K.U. |  |
| CCC(COC)OC(=O)C(C(=O)OC(CC)COC)=C1SC2C(S1)N(C)CCN2C (stereo not drawn) [Compound 63] | 0.5 | 32.8 K.U. |  |
| CCOC(=O)C(C(=O)OCC(C)C)=C1SC2C(S1)N(CC)CCN2CC (stereo not drawn) [Compound 67] | 2.5 | 1,620 K.U. |  |
| CCCCOC(=O)C(C(=O)OC(C)C)=C1SC2C(S1)N(CC)CCN2CC (stereo not drawn) [Compound 68] | 1.5 | 914.6 K.U. |  |
| CCOC(=O)C(C(=O)OC(C)(C)C)=C1SC2C(S1)N(CC)CCN2CC (stereo not drawn) [Compound 72] | 0.4 | 428.6 K.U. |  |
| Cc1ccc(COC(=O)C(C(=O)OC(C)C)=C2SC3C(S2)N(C)CCN3C)cc1 (stereo not drawn) [Compound 74] | 0.6 | 25 K.U. |  |
| COc1ccc(COC(=O)C(C(=O)OC(C)C)=C2SC3C(S2)N(C)CCN3C)cc1 (stereo not drawn) [Compound 75, Isopropyl 4-methoxybenzyl(2,5-dimethyl-2,5-diaza-7,9-dithiabicycl-[4,3,0]-nonane-8-ylidene)malonate] | 0 | 20 K.U. |  |
| CC(C)OC(=O)C(C(=O)OC(C)c1ccc(Cl)cc1Cl)=C1SC2C(S1)N(C)CCN2C (stereo not drawn) [Compound 79] | 1.4 | 1,060 K.U. |  |
| Cc1ccc(C(C)OC(=O)C(C(=O)OC(C)C)=C2SC3C(S2)N(C)CCN3C)cc1 (stereo not drawn) [Compound 81] | 1.2 | 120 K.U. |  |
| CCOC(=O)C(C(=O)OC(C)c1ccc(Cl)cc1)=C1SC2C(S1)N(C)CCN2C (stereo not drawn) [Compound 83] | 0.8 | 38.6 K.U. |  |
| CCOC(=O)C(C(=O)OC(C)c1ccccc1)=C1SC2C(S1)N(C)CCN2C (stereo not drawn) [Compound 84] | 0.8 | 37 K.U. |  |
| CCC(C)OC(=O)C(C(=O)OC(C)CC)=C1SC2NCCNC2S1 (stereo not drawn) [Compound 87] | 0.2 | 21 K.U. |  |
| CC(C)OC(=O)C(C(=O)OC(C)C)=C1SC2C(S1)N(C)CCN2C (stereo not drawn) [Compound 94] | 2.0 | 1,534 K.U. |  |
| CCCOC(=O)C(C(=O)OCCC)=C1SC2NCCNC2(C)S1.Cl (stereo not drawn) [Compound 96, Di-n-propyl(6-methyl-2,5-diaza-7,9-dithiabicyclo-[4,3,0]-nonane-8-ylidene)malonate hydrochloride salt] | 0.1 | 28.0 K.U. |  |
| CC(C)OC(=O)C(C(=O)OC(C)C)=C1SC2NCCNC2(C)S1 (stereo not drawn) [Compound 97] | 0.2 | 45.0 K.U. |  |
